Marks after values point to notes of the source that are not given here.
Experiments:
[1] = Food-effect trial: cumulative excretion rate from urine (0-48 h); format: in vivo, human; settings: single oral 200 mg CK
Procedure: The food-effect trial was an open-label, randomized, two-period, two-treatment crossover trial, carried out from 15 January to 31 March 2015. Subjects (n = 24) were admitted to the clinical facility (Center of Clinical Pharmacology, the Third Xiangya Hospital, Central South University, Changsha, China) and randomized to receive a single 200 mg oral dose of Ginsenoside CK Tablets (4 × 50 mg tablets) either after a 10 h-fasting period or within 30 min after beginning the consumption of a recommended high-fat, high calorie breakfast (150 calories of protein, 250 calories of carbohydrates, 500 to 600 calories of fat; total calories approximately 800–1,000). Tablets were administered with 250 mL of water, to each subject, in each treatment period. Drinking was prohibited for 2 h before and after medication. Apart from this, the amount and time of drinking were not strictly controlled. Subjects had unified, standard meals 4 and 10 h after drug administration. The alternate treatment was conducted after a 14-day washout period. Urine samples were collected 0–24 and 24–48 h after the administration and the volumes were measured immediately after collection. We preserved 8 mL in centrifuge tube for PK assessment, which were stored at −70°C before analysis. Descriptive statistics of PK parameters were calculated using established non-compartmental methods, utilizing the WinNonLin version 6.1 software (Pharsight Corporation, USA). The PK parameters determined for each participant included apparent terminal half-life (t1/2), maximum plasma concentration (Cmax), time to Cmax (tmax), area under the plasma concentration-time curve from the time of administration up to the last time point with a measurable concentration post-dose (AUClast), AUC extrapolated to infinity (AUCinf), apparent volume of distribution (V/F), apparent plasma clearance (CL/F) after extravascular administration, mean residence time (MRTlast and MRTinf), and the cumulative excretion rate from urine. The t1/2 was estimated as (ln2)/K, where K represented the slope of the terminal phase of plasma concentration-time profile and was assessed with a weighting factor of 1, using least squares (log-linear regression of at least three data points). The Cmax and tmax were obtained from experimental observations. The values of AUC were calculated using conventional trapezoidal and log-trapezoidal methods and the extrapolated area (Rowland and Tozer, [1995]). CL/F and V/F were calculated as dose/AUCinf and (CL/F)/K, respectively. MRT was calculated as MRT = AUMC/AUC, where AUMC is the area under the first moment curve. The cumulative excretion rate was calculated as the amount of unchanged drug over a time interval in the urine divided by dose, and was expressed as a percentage. The processing of urine samples was similar to that of plasma samples. […] For QC samples containing 2.00, 50.10, or 801.60 ng·mL^−1 CK were prepared using homogenic human urine with the mean bias ranged from −5.54 to 3.56%, while the CVs ranged from 1.38 to 4.89%.

[2] = Food-effect trial: safety assessments (adverse events, vital signs, ECG, laboratory tests); format: in vivo, human
Procedure: All available information on the study participants was included in the summaries of safety assessments, and must be recorded on the case-report form by investigators. The safety assessment took place throughout the project, and it included continuous observation of adverse events (AEs), monitoring of vital signs, 12-lead ECGs, hematological and biochemical analyses, and urinalysis. Specifically, the monitoring began the night before drug administration (at least 10 h), when subjects were admitted to the clinical facility, and continued for 96 h after dosing. ECGs were recorded prior to the administration and 1, 4, 12, 24, 48, 72, and 96 h after the administration of CK, as well as during physical examinations before and after the trial. Apart from investigators' review, data were also obtained from subjects by recounting or narrating themselves. Subsequently, AEs were classified by intensity into mild, moderate, and severe. A second classification of AEs, based on the relationship of AEs to the test drug, was performed, dividing them into positive, probable, possible, remote, or unrelated.

[3] = Early clinical trial: sex differences of ginsenoside compound K pharmacokinetics (Supplementary Table 1); settings: human, in vivo; for Cmax: n = 12
Procedure: Therefore, a secondary purpose of this trial is to investigate whether there are any differences in the pharmacokinetics of CK between males and females, and whether the findings are consistent with what was previously observed. This report described an open-label, single-center trial, designed as a two-period crossover study, performed on healthy Chinese subjects (n = 24) randomized to either the fasting overnight (FO) or the high-fat (HF) meal group, before receiving a single 200 mg dose of Ginsenoside CK Tablets. Consequently, this study also provides evidence for dosing regimens, for late-stage clinical studies and clinical applications. Supplementary Table 1. Sex differences of ginsenoside compound K in human (n = 12).

[4] = set-up: method as in Chen et al., [2014]; settings: rats; ref Chen et al., [2014]; cited from earlier work
[5] = Abnormal urine routine, possible related
[6] = Elevated creatine kinase, possible related
[7] = Elevated direct bilirubin, probable related
[8] = Elevated triglycerides, possible related
[9] = Upper respiratory tract infection, possible related

CC(C)=CCCC(C)(OC1OC(CO)C(O)C(O)C1O)C1CCC2(C)C1C(O)CC1C3(C)CCC(O)C(C)(C)C3CCC12C [CK, 20-O-beta-D-glucopyranosyl-20(S)-protopanaxadiol]
Cumulative excretion rate ([1]; FO, female): 0.083 ± 0.049%
Cumulative excretion rate ([1]; FO, male): 0.037 ± 0.029%
Cumulative excretion rate ([1]; HF, all subjects): 0.020 ± 0.015%
Cumulative excretion rate ([1]; HF, female): 0.019 ± 0.070%
Cumulative excretion rate ([1]; HF, male): 0.022 ± 0.020%
Cumulative excretion rate ([1]; unchanged drug / dose, FO, all subjects): 0.060 ± 0.046%
Adverse events: Number of cases [2, 5]: 1^c
Adverse events: Percentage [2, 5]: 4.2%
Adverse events: Number of cases ([2]; Bellyache, positive related): 3^a
Adverse events: Percentage ([2]; Bellyache, positive related): 12.5%
Adverse events: Number of cases ([2]; Diarrhea, probable related): 1^b
Adverse events: Percentage ([2]; Diarrhea, probable related): 4.2%
Adverse events: Number of cases [2, 6]: 3^c
Adverse events: Percentage [2, 6]: 12.5%
Adverse events: Number of cases [2, 7]: 1^b
Adverse events: Percentage [2, 7]: 4.2%
Adverse events: Number of cases [2, 8]: 3^c
Adverse events: Percentage [2, 8]: 12.5%
Incidence of AEs classified as positive, probable and possible in relation to the test drug ([2]; FO regimen): 55.6%
Incidence of AEs classified as positive, probable and possible in relation to the test drug ([2]; HF regimen): 44.4%
Adverse events: Number of cases ([2]; Hematuria, possible related): 1^c
Adverse events: Percentage ([2]; Hematuria, possible related): 4.2%
Adverse events: Number of cases ([2]; Nausea, probable related): 1^b
Adverse events: Percentage ([2]; Nausea, probable related): 4.2%
Adverse events: Number of cases [2, 9]: 1^c
Adverse events: Percentage [2, 9]: 4.2%
Adverse events: Percentage ([2]; Watery stool, positive related): 16.7%
Adverse events: Number of cases ([2]; Watery stool, positive related to ginsenoside compound K, 24 subjects): 4^a
Intensity of AEs ([2]; all AEs): mild
Instances of AEs recorded ([2]; both treatments): 19
Number of subjects with AEs ([2]; of 24 subjects): 11
Subjects with AEs (percentage) ([2]; of 24 subjects, both treatments): 45.8%
Abnormalities in physical examination, vital signs, ECGs, or standard clinical laboratory test results ([2]; single 200 mg dose): not associated with any clinically significant abnormalities
AUC(0-inf) ([3]; female): 4670 ± 2140 ng·h/mL
AUC(0-t) ([3]; female): 4490 ± 2030 ng·h/mL
Tmax ([3]; female): 2.58 ± 0.67 h
half-life ([3]; female): 5.66 ± 2.04 h
Cmax ([3]; Female): 873 ± 427 ng/mL
Cmax ([3]; Male): 601 ± 183 ng/mL
AUC(0-inf) ([3]; male): 3680 ± 1360 ng·h/mL
AUC(0-t) ([3]; male): 3600 ± 1320 ng·h/mL
Tmax ([3]; male): 3.19 ± 1.25 h
half-life ([3]; male): 4.15 ± 1.9 h
Dose exhibiting initial anti-inflammatory activity [4]: 10 mg/kg

Reference: PMC5602130, “Food and Sex-Related Impacts on the Pharmacokinetics of a Single-Dose of Ginsenoside Compound K in Healthy Subjects” (Frontiers in Pharmacology, 2017)
